Format in all cases: ADME, organism-based
A short description of series [1]: Cmax in ICR mouse gall bladder at 50 mg/kg, po. Set-up: dose 50 mg/kg, route oral.
Series [2] is described as follows: Cmax in ICR mouse bile at 50 mg/kg, po. Set-up: dose 50 mg/kg, route oral.
Series [3] can be described thus: Cmax in ICR mouse plasma at 50 mg/kg, po. More on the design: dose 50 mg/kg, route oral.
The nature of series [4]: AUC (0 to 4.5 hrs) in ICR mouse gall bladder at 50 mg/kg, po. More on the design: time < 4.5 hr, dose 50 mg/kg, route oral.
The nature of series [5]: Drug level in ICR mouse gall bladder at 50 mg/kg, po after 4.5 hrs. Set-up: dose 50 mg/kg, route oral. As to conditions: read-out: Drug uptake.
Series [6] can be described thus: Drug level in ICR mouse gall bladder at 50 mg/kg, po after 2.5 hrs. More on the design: dose 50 mg/kg, route oral. To be noted: read-out: Drug uptake.
Series [7] is described as follows: Drug level in ICR mouse gall bladder at 50 mg/kg, po after 1 hr. Set-up: dose 50 mg/kg, route oral. As to conditions: read-out: Drug uptake.
Series [8] can be described thus: Drug level in ICR mouse gall bladder at 50 mg/kg, po after 0.5 hrs. Set-up: dose 50 mg/kg, route oral. As to conditions: read-out: Drug uptake.
Series [9] in a line: AUC (0 to 4.5 hrs) in ICR mouse bile at 50 mg/kg, po. Set-up: time < 4.5 hr, dose 50 mg/kg, route oral.
Series [10] can be described thus: Drug level in ICR mouse bile at 50 mg/kg, po after 4.5 hrs. More on the design: dose 50 mg/kg, route oral. To be noted: read-out: Drug uptake.
Series [11] can be described thus: Drug level in ICR mouse bile at 50 mg/kg, po after 2.5 hrs. Set-up: dose 50 mg/kg, route oral. As to conditions: read-out: Drug uptake.
Series [12] can be described thus: Drug level in ICR mouse bile at 50 mg/kg, po after 1 hr. More on the design: dose 50 mg/kg, route oral. To be noted: read-out: Drug uptake.
Series [13] in a line: Drug level in ICR mouse bile at 50 mg/kg, po after 0.5 hrs. More on the design: dose 50 mg/kg, route oral. To be noted: read-out: Drug uptake.
Series [14] in a line: AUC (0 to 4.5 hrs) in ICR mouse plasma at 50 mg/kg, po. Set-up: time < 4.5 hr, dose 50 mg/kg, route oral.
A short description of series [15]: Plasma concentration in ICR mouse at 50 mg/kg, po after 4.5 hrs. More on the design: dose 50 mg/kg, route oral.
A short description of series [16]: Plasma concentration in ICR mouse at 50 mg/kg, po after 2.5 hrs. More on the design: dose 50 mg/kg, route oral.
Series [17] is described as follows: Plasma concentration in ICR mouse at 50 mg/kg, po after 1 hr. Set-up: dose 50 mg/kg, route oral.
A short description of series [18]: Plasma concentration in ICR mouse at 50 mg/kg, po after 0.5 hrs. Set-up: dose 50 mg/kg, route oral.
Series [19] can be described thus: Half life in Sprague-Dawley rat at 5 mg/kg, po. Set-up: dose 5 mg/kg, route oral. To be noted: in vivo.
Series [20] in a line: MRT in Sprague-Dawley rat at 5 mg/kg, po. Set-up: dose 5 mg/kg, route oral. As to conditions: in vivo.
Series [21] in a line: AUC (0 to infinity) in Sprague-Dawley rat at 5 mg/kg, po. More on the design: time infinity, dose 5 mg/kg, route oral. As to conditions: plasma.
The nature of series [22]: AUC (0 to t) in Sprague-Dawley rat at 5 mg/kg, po. Set-up: dose 5 mg/kg, route oral. To be noted: plasma.
Series [23] can be described thus: Cmax in Sprague-Dawley rat at 5 mg/kg, po. Set-up: dose 5 mg/kg, route oral. To be noted: in vivo.
Series [24] in a line: Tmax in Sprague-Dawley rat at 5 mg/kg, po. As to conditions: in vivo. Set-up: dose 5 mg/kg, route oral.

Structures are written as SMILES.

The term Cmax denotes the highest concentration seen after dosing. Broadly, the AUC(0-t) is exposure summed from dosing to a finite time, without extrapolation to infinity. The half-life is how long it takes for the measured level to halve. Broadly, the MRT is the average time that molecules of a dose stay in the body. For orientation: AUC(0-inf) means the area under the concentration-time curve extrapolated to infinity. Lower therefore signals less exposure. For orientation: Tmax means the time at which the peak concentration occurs. Turning to `Cc1ccc(C)c(Oc2ccncc2C(=O)N2CCN(C3CC3)c3ccccc32)c1`, the Cmax amounted to 523 ng/g in series [1], 3700 nM in [2], 3600 nM in series [3] and 56 ng/mL in series [23]. In addition, the figures for the AUC(0-t) at 4.5 h in [4], in [9] and in [14] were 1290 ng·h/mL, 3380 ng·h/mL and 3130 ng·h/mL, respectively. Also, the concentration at 4.5 h in series [5] was found to be 217 ng/g; in [10], 2000 nM; in [15] it was 510 nM. In addition, the concentration at 2.5 h in series [6] is 306 ng/g; in series [11], 2000 nM; in [16], 2000 nM. The concentration at 1 h in series [7] amounted to 393 ng/g; in series [12], 2100 nM; in [17], 2300 nM. The concentration at 0.5 h is 294 ng/g in [8], 1700 nM in [13] and 3100 nM in series [18]. The same molecule gave a half-life in [19] of 1.5 h. Further, the MRT in [20] was 2.4 h. Besides, in series [21], the AUC(0-inf) stood at 155 ng·h/mL. In [22], this molecule displayed an AUC(0-t) of 147 ng·h/mL. In series [24], the Tmax came out at 0.9 h.

The values above are taken from ChEMBL document CHEMBL2177042, “Design, synthesis, and antidiabetic activity of 4-phenoxynicotinamide and 4-phenoxypyrimidine-5-carboxamide derivatives as potent and orally efficacious TGR5 agonists” (J Med Chem, 2012).
